From patent US9085555B2, “Complement pathway modulators and uses thereof” (priority 2011, dated 2015)

Target: Factor D (Homo sapiens (Human), UniProt P00746)
Assay: biochemical
Format: biochemical
Conditions: read-out: IC50

Chain of Factor D (P00746 26-253): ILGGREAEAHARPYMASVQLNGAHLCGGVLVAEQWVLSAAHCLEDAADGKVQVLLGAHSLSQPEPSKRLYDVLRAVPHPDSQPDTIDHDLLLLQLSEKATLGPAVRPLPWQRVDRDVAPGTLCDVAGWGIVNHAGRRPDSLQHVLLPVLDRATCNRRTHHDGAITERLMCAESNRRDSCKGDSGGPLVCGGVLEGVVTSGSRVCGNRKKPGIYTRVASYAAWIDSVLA

SMILES	IC50
NC(=O)c1nn(CC(=O)N2[C@@H]3C[C@@H]3C[C@H]2C(=O)Nc2cccc(-c3ccccc3F)c2F)c2cnccc12 [Example 684, 1-{2-[(1R,3S,5R)-3-(2,2′-Difluoro-biphenyl-3-ylcarbamoyl)-2-aza-bicyclo[3.1.0]hex-2-yl]-2-oxo-ethyl}-1H-pyrazolo[3,4-c] pyridine-3-carboxylic acid amide]	27 nM
CO[C@H]1[C@@H](C(=O)N[C@H](C)c2cccc(Cl)c2F)N(C(=O)Cn2nc(C(C)=O)c3cccnc32)C[C@@H]1F [Example 624, (2S,3S,4S)-1-[2-(3-Acetyl-pyrazolo[3,4-b]pyridin-1-yl)-acetyl]-4-fluoro-3-methoxy-pyrrolidine-2-carboxylic acid [(R)-1-(3-chloro-2-fluoro-phenyl)-ethyl]-amide]	26 nM
NC(=O)n1cc(NC(=O)N2C[C@@H](N)C[C@H]2C(=O)Nc2cccc(OC(F)(F)F)c2)c2ccc(OCc3ccccc3)cc21 [Example 398, (2S,4S)-4-Amino-pyrrolidine-1,2-dicarboxylic acid 1-[(6-benzyloxy-1-carbamoyl-1H-indol-3-yl)-amide]2-[(3-trifluoromethoxy-phenyl)-amide]]	3050 nM
CO[C@H]1[C@@H](C(=O)Nc2cccc(Br)n2)N(C(=O)Cn2nc(C(N)=O)c3ccccc32)C[C@@H]1F [Example 754, 1-{2-[(2S,3S,4S)-2-(6-Bromo-pyridin-2-ylcarbamoyl)-4-fluoro-3-methoxy-pyrrolidin-1-yl]-2-oxo-ethyl}-1H-indazole-3-carboxylic acid amide]	5 nM
COc1ccc2c(c1)c(NC(=O)N1C[C@H](F)C[C@H]1C(=O)NCc1cccc(Cl)c1F)cn2C(N)=O [Example 292, (2S,4R)-4-Fluoro-pyrrolidine-1,2-dicarboxylic acid 1-[(1-carbamoyl-5-methoxy-1H-indol-3-yl)-amide] 2-(3-chloro-2-fluoro-benzylamide)]	3 nM
NC(=O)n1cc(NC(=O)N2C[C@@H](N)C[C@H]2C(=O)NCc2ccc(C(F)(F)F)cc2)c2ccccc21 [Example 45, (2S,4S)-4-Amino-pyrrolidine-1,2-dicarboxylic acid 1-[(1-carbamoyl-1H-indol-3-yl)-amide] 2-(4-trifluoromethyl-benzylamide)]	22500 nM
NC(=O)c1nn(CC(=O)N2C[C@H](F)C[C@H]2C(=O)Nc2cccc(OC(F)(F)F)c2F)c2ccccc12 [Example 708]	54 nM
NC(=O)n1cc(NC(=O)N2C[C@@H](N)[C@H](F)[C@H]2C(=O)NCc2cccc(Cl)c2F)c2ccccc21 [Example 430, 2R,3S,4R)-4-Amino-3-fluoro-pyrrolidine-1,2-dicarboxylic acid 1-[(1-carbamoyl-1H-indol-3-yl)-amide]2-(3-chloro-2-fluoro-benzylamide]	58 nM
CN(C)[C@H]1C[C@@H](C(=O)NCc2cccc(Cl)c2F)N(C(=O)Nc2cn(C(N)=O)c3ccccc23)C1 [Example 427, 2S,4S)-4-Dimethylamino-pyrrolidine-1,2-dicarboxylic acid 1-[(1-carbamoyl-1H-indol-3-yl)-amide]2-(3-chloro-2-fluoro-benzylamide]	665 nM
NC(=O)n1cc(NC(=O)N2C[C@H](F)C[C@H]2C(=O)NC(C(=O)O)c2cccc(Cl)c2)c2ccccc21 (stereo partly drawn) [Example 246, {[(2S,4R)-1-(1-Carbamoyl-1H-indol-3-ylcarbamoyl)-4-fluoro-pyrrolidine-2-carbonyl]-amino}-(3-chloro-phenyl)-acetic acid]	2000 nM
CC(=O)c1cn(CC(=O)N2[C@@H]3CC[C@@H](C3)[C@H]2C(=O)NCc2cccc(Cl)c2F)c2ccccc12 [Example 512, (1R,3S,4S)-2-[2-(3-Acetyl-indol-1-yl)-acetyl]-2-aza-bicyclo[2.2.1]heptane-3-carboxylic acid 3-chloro-2-fluoro-benzylamide]	411 nM
NC(=O)n1cc(NC(=O)N2CCC[C@H]2C(=O)Nc2cc(-c3ccccc3)no2)c2ccccc21 [Example 440, (S)-Pyrrolidine-1,2-dicarboxylic acid 1-[(1-carbamoyl-1H-indol-3-yl)-amide]2-[(3-phenyl-isoxazol-5-yl)-amide]]	1050 nM
Cc1c(Cl)cccc1CNC(=O)[C@@H]1C[C@H](N)CN1C(=O)Nc1cn(C(N)=O)c2ccccc12 [Example 57, (2S,4S)-4-Amino-pyrrolidine-1,2-dicarboxylic acid 1-[(1-carbamoyl-1H-indol-3-yl)-amide] 2-(3-chloro-2-methyl-benzylamide)]	1350 nM
NC(=O)n1cc(NC(=O)N2CC[C@H](F)[C@H]2C(=O)NCc2cccc(Cl)c2)c2ccccc21 [Example 348, 2R,3S)-3-Fluoro-pyrrolidine-1,2-dicarboxylic acid 1-[(1-carbamoyl-1H-indol-3-yl)-amide]2-(3-chloro-benzylamide]	200 nM
CC(=O)c1cn(CC(=O)N2[C@@H]3C[C@@H]3C[C@H]2C(=O)NCc2cccc(Cl)c2F)c2nnccc12 [Example 655, (1R,3S,5R)-2-[2-(5-Acetyl-pyrrolo[2,3-c]pyridazin-7-yl)-acetyl]-2-aza-bicyclo [3.1.0]hexane-3-carboxylic acid 3-chloro-2-fluoro-benzylamide]	91 nM
NC(=O)c1nn(CC(=O)N2[C@@H]3C[C@@H]3C[C@H]2C(=O)NCc2cccc(Cl)c2F)c2ccncc12 [Example 650, 1-{2-[(1R,3S,5R)-3-(3-Chloro-2-fluoro-benzylcarbamoyl)-2-aza-bicyclo[3.1.0]hex-2-yl]-2-oxo-ethyl}-1H-pyrazolo[4,3-c]pyridine-3-carboxylic acid amide]	22 nM
NC(=O)n1cc(NC(=O)N2C[C@@H](N)C[C@H]2C(=O)NC2CCc3ccc(Cl)cc32)c2ccccc21 (stereo partly drawn) [Example 79, (2S,4S)-4-Amino-pyrrolidine-1,2-dicarboxylic acid 1-[(1-carbamoyl-1H-indol-3-yl)-amide] 2-[(6-chloro-indan-1-yl)-amide]]	6000 nM
NC(=O)n1cc(NC(=O)N2CC[C@H](N)[C@H]2C(=O)NCc2cccc(Cl)c2F)c2ccccc21 [Example 420, 2S,3S)-3-Amino-pyrrolidine-1,2-dicarboxylic acid 1-[(1-carbamoyl-1H-indol-3-yl)-amide]2-(3-chloro-2-fluoro-benzylamide]	1150 nM
NC(=O)n1cc(NC(=O)N2C[C@H](F)C[C@H]2C(=O)NCc2cc(CN3CCOCC3)cc(Cl)c2F)c2ccccc21 [Example 18, (2S,4R)-4-Fluoro-pyrrolidine-1,2-dicarboxylic acid 1-[(1-carbamoyl-1H-indol-3-yl)-amide] 2-(3-chloro-2-fluoro-5-morpholin-4-ylmethyl-benzylamide)]	815 nM
COC(=O)[C@H](COC(C)(C)C)NC(=O)[C@@H]1C[C@H](N)CN1C(=O)Nc1cn(C(N)=O)c2ccccc12 [Example 96, (S)-2-{[(2S,4S)-4-Amino-1-(1-carbamoyl-1H-indol-3-ylcarbamoyl)-pyrrolidine-2-carbonyl]-amino}-3-tert-butoxy-propionic acid methyl ester]	8050 nM
NC(=O)n1cc(NC(=O)N2[C@@H](CO)CC[C@H]2C(=O)Nc2cccc(OC(F)(F)F)c2)c2ccccc21 [Example 360, (2S,5R)-5-Hydroxymethyl-pyrrolidine-1,2-dicarboxylic acid 1-[(1-carbamoyl-1H-indol-3-yl)-amide]2-[(3-trifluoromethoxy-phenyl)-amide]]	1000 nM
CC(=O)c1cn(CC(=O)N2C[C@](C)(F)C[C@H]2C(=O)N[C@H](CO)c2cccc(Cl)c2F)c2ncccc12 [Example 614, (2S,4R)-1-[2-(3-Acetyl-pyrrolo[2,3-b]pyridin-1-yl)-acetyl]-4-fluoro-4-methyl-pyrrolidine-2-carboxylic acid [(S)-1-(3-chloro-2-fluoro-phenyl)-2-hydroxy-ethyl]-amide]	245 nM
NC(=O)n1cc(NC(=O)N2C[C@H](F)C[C@H]2C(=O)NCc2ccccc2C(=O)O)c2ccccc21 [Example 23, 2-({[(2S,4R)-1-(1-Carbamoyl-1H-indol-3-ylcarbamoyl)-4-fluoro-pyrrolidine-2-carbonyl]-amino}-methyl)-benzoic acid]	1850 nM
Cc1cc2c(C(N)=O)nn(CC(=O)N3[C@@H]4C[C@@H]4C[C@H]3C(=O)Nc3cccc(OC(F)(F)F)c3F)c2cn1 [Example 723, 1-{2-[(1R,3S,5R)-3-(2-Fluoro-3-trifluoromethoxy-phenylcarbamoyl)-2-aza-bicyclo[3.1.0]hex-2-yl]-2-oxo-ethyl}-5-methyl-1H-pyrazolo[3,4-c]pyridine-3-carboxylic acid amide]	90 nM
NC(=O)c1nn(CC(=O)N2[C@@H]3C[C@@H]3C[C@H]2C(=O)Nc2cccc(C(F)(F)F)n2)c2cnccc12 [Example 732, 1-{2-Oxo-2-[(1R,3S,5R)-3-(6-trifluoromethyl-pyridin-2-ylcarbamoyl)-2-aza-bicyclo [3.1.0]hex-2-yl]-ethyl}-1H-pyrazolo[3,4-c]pyridine-3-carboxylic acid amide]	44 nM
CC(=O)c1cn(CC(=O)N2[C@@H]3C[C@@H]3C[C@H]2C(=O)NCc2cccc(Cl)c2F)c2cc(-c3nnn[nH]3)ccc12 [Example 618, (1R,3S,5R)-2-{2-[3-Acetyl-6-(1H-tetrazol-5-yl)-indol-1-yl]-acetyl}-2-aza-bicyclo[3.1.0]hexane-3-carboxylic acid 3-chloro-2-fluoro-benzylamide]	39 nM
NC(=O)n1cc(NC(=O)N2C[C@H](F)[C@@H](N)[C@H]2C(=O)NCc2cccc(Cl)c2F)c2ccccc21 [Example 431, 2S,3S,4S)-3-Amino-4-fluoro-pyrrolidine-1,2-dicarboxylic acid 1-[(1-carbamoyl-1H-indol-3-yl)-amide]2-(3-chloro-2-fluorobenzylamide]	31 nM
NC(=O)n1cc(NC(=O)N2[C@@H]3C[C@@H]3C[C@H]2C(=O)NCc2ccccc2F)c2cc(OCC(=O)O)ccc21 [Example 391, (1-Carbamoyl-3-{[(1R,3S,5R)-3-(2-fluoro-benzylcarbamoyl)-2-aza-bicyclo[3.1.0]hexane-2-carbonyl]-amino}-1H-indol-5-yloxy)-acetic acid]	30 nM
Cc1cc2c(C(N)=O)nn(CC(=O)N3[C@@H]4C[C@@H]4C[C@H]3C(=O)Nc3cccc(OC(F)(F)F)c3F)c2c[n+]1[O-] [Example 726]	169 nM
